Laboratory results published in article PMC3004914, “Classification of Drugs Based on Properties of Sodium Channel Inhibition: A Comparative Automated Patch-Clamp Study” (PLoS ONE, 2010).
Read-outs that look alike come from different tables or passages of the source.

Key:
sodium channels = conditions: averaged literature data, cited from earlier work; for Ki: read-out: Ki−Lit; for Kd: read-out: Kr−Lit
[1] = target: T1, rNav1.2 sodium channels (HEK-293 cells) (Rattus norvegicus, UniProt P04775); experiment: steady-state inactivation protocol (availability curves), QPatch automated patch-clamp; format: cell-based
Source text: (§1) A)–D) Peak amplitudes of evoked currents (5 Hz trains of 5 depolarizations from −90 to −10 mV) are plotted against time. Black dots: Control. Grey dots: Drug perfusion. […] Calculation of properties of inhibition is illustrated. […] E) Calculation of Kr and Ki values from steady-state availability curves.
Standard steady-state inactivation protocols were used to measure the shift of steady-state availability curve caused by the drugs. Currents were evoked by a 10 ms test pulse to −10 mV, preceded by 400 ms pre-pulses from −150 to −30 mV. […] Because the inhibition at hyperpolarized potentials (Inh−150), and the shift of the availability curves (ΔV1/2) are both concentration-dependent properties, we calculated affinities to hyperpolarized and depolarized states (“resting state affinity”: Kr, and “inactivated state affinity”: Ki), which, on the other hand, are concentration-independent characteristics of individual drugs. Calculation of Kr and Ki values are described in Materials and Methods, and illustrated in Figure 1E. State-dependence (SD) was quantified as the ratio Kr/Ki.
(§2) HEK-293 cells stably expressing rNav1.2 sodium channels were obtained from NeuroSearch (Ballerup, Denmark).
(§3) Cells were automatically prepared for application to the chips (centrifuged and washed twice, then resuspended in extracellular solution) as described previously. Composition of the extracellular solution was: (in mM): 140 NaCl, 3 KCl, 1 CaCl2, 1 MgCl2, 0.1 CdCl2, 20 TEA-Cl, 5 HEPES, adjusted to pH 7.3, Osmolality: ∼320 mOsm.
(§4) All electrophysiological experiments were conducted on Qpatch-16 or QPatch HT instruments using QPlate™ chips. For a detailed description of the instrument and the patch-clamp chips see [37], [38]. Data were sampled at a frequency of 25 kHz and filtered at 5 kHz. […] The amplifier was controlled and the data were collected by the Sophion QPatch client software. For initial data analysis the QPatch software was used. Built-in amplifiers provide an improved method for series resistance compensation. Leak subtraction (based on a standard P/n protocol) was used to subtract the capacitive component of currents.
Inactivated affinity (Ki) values were calculated assuming a simple four-state model of drug binding and channel gating, using two separate methods: (1) from the shift of the availability curve (ΔV1/2), the slope of the Boltzmann fit of the availability curve (k) and Kr, using the formula described by Bean, Cohen and Tsien (Ki−ΔV1/2; see Figure 1E), or (2) from the apparent affinity (Kapp) at a certain pre-pulse potential, which was calculated from the inhibition (e.g. Inh−60) as described above, and the availability (h) at the same pre-pulse potential, using the formula from Kuo and Bean (Figure 1E). […] (Arithmetic means and SEM values are given in Results S7.)

[2] = target: T1, rNav1.2 sodium channels (HEK-293 cells); experiment: 5 Hz train protocol, QPatch automated patch-clamp; format: cell-based; conditions: for Rev (reversibility): Rev = A5/A1 after washout; for potency estimated from few doses: −90 mV, read-out: IC50;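 as to UD (use-dependence of the inhibition): UD = (A3/A4)/(A1/A2) as ratios of peak amplitudes from Figure 1A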
Source text: The dynamics of the onset and offset of inhibition was monitored using 5 Hz trains of five depolarizing pulses from a holding potential of −90 mV to −10 mV. The trains were repeated every 20 s. Drugs were applied after 10 control trains and 10 trains were delivered in the presence of the drug. The drug was then washed out, and the 10 trains were repeated.
We measured inhibition (Inh; from which we calculated IC50 values as described in Materials and Methods), reversibility of inhibition (Rev) and use-dependence (UD), as well as time constant of onset (τon) and offset (τoff). The calculation of IC50, quantification of Rev and UD, and the determination of time constants are illustrated in Figure 1A. Because τon should be concentration-dependent if we assume a single binding reaction, we excluded it from the analyses. […] Comments on the interpretation of these properties (Rev, […] and UD) are in Results S1.
as §1, §2, §3, §4
From this protocol we extracted five parameters, as illustrated in Figure 1A. We calculated inhibition of a single “cc” concentration: Inh = (amplitudectr – amplitudedrug)/amplitudectr.

[3] = human plasma, cited from earlier work
[4] = HEK293, 30 µM, read-out: Inh (inhibited fraction) at holding potential −150 mV
[5] = HEK293, 100 µM, read-out: Inh (inhibited fraction) at holding potential −150 mV
[6] = arithmetic mean, 30 µM, read-out: Ki-Kapp arith
[7] = arithmetic mean, 30 µM, read-out: Ki-ΔV1/2 arith
[8] = arithmetic mean, 30 µM, read-out: Kr arith
[9] = arithmetic mean, 100 µM, read-out: Ki-Kapp arith
[10] = arithmetic mean, 100 µM, read-out: Ki-ΔV1/2 arith
[11] = arithmetic mean, 100 µM, read-out: Kr arith
[12] = geometric mean, from Inh at −150 mV, 30 µM, read-out: Kr (resting state affinity)
[13] = geometric mean, from Inh at −150 mV, 100 µM, read-out: Kr (resting state affinity)
[14] = geometric mean, from apparent affinity, 30 µM, read-out: Ki−Kapp (inactivated state affinity)
[15] = geometric mean, from apparent affinity, 100 µM, read-out: Ki−Kapp (inactivated state affinity)
[16] = geometric mean, from shift of availability curve, 30 µM, read-out: Ki−ΔV1/2 (inactivated state affinity)
[17] = geometric mean, from shift of availability curve, 100 µM, read-out: Ki−ΔV1/2 (inactivated state affinity)
[18] = 30 μM, 500 s assigned where irreversible
[19] = HEK293, 30 μM, −90 mV holding potential, 5 Hz train, read-out: Inh (inhibited fraction)
[20] = HEK293, calculated from Inh at single concentration 30 μM, 5 Hz train

T1 sequence (P04775 whole entry, the tested form may be a part): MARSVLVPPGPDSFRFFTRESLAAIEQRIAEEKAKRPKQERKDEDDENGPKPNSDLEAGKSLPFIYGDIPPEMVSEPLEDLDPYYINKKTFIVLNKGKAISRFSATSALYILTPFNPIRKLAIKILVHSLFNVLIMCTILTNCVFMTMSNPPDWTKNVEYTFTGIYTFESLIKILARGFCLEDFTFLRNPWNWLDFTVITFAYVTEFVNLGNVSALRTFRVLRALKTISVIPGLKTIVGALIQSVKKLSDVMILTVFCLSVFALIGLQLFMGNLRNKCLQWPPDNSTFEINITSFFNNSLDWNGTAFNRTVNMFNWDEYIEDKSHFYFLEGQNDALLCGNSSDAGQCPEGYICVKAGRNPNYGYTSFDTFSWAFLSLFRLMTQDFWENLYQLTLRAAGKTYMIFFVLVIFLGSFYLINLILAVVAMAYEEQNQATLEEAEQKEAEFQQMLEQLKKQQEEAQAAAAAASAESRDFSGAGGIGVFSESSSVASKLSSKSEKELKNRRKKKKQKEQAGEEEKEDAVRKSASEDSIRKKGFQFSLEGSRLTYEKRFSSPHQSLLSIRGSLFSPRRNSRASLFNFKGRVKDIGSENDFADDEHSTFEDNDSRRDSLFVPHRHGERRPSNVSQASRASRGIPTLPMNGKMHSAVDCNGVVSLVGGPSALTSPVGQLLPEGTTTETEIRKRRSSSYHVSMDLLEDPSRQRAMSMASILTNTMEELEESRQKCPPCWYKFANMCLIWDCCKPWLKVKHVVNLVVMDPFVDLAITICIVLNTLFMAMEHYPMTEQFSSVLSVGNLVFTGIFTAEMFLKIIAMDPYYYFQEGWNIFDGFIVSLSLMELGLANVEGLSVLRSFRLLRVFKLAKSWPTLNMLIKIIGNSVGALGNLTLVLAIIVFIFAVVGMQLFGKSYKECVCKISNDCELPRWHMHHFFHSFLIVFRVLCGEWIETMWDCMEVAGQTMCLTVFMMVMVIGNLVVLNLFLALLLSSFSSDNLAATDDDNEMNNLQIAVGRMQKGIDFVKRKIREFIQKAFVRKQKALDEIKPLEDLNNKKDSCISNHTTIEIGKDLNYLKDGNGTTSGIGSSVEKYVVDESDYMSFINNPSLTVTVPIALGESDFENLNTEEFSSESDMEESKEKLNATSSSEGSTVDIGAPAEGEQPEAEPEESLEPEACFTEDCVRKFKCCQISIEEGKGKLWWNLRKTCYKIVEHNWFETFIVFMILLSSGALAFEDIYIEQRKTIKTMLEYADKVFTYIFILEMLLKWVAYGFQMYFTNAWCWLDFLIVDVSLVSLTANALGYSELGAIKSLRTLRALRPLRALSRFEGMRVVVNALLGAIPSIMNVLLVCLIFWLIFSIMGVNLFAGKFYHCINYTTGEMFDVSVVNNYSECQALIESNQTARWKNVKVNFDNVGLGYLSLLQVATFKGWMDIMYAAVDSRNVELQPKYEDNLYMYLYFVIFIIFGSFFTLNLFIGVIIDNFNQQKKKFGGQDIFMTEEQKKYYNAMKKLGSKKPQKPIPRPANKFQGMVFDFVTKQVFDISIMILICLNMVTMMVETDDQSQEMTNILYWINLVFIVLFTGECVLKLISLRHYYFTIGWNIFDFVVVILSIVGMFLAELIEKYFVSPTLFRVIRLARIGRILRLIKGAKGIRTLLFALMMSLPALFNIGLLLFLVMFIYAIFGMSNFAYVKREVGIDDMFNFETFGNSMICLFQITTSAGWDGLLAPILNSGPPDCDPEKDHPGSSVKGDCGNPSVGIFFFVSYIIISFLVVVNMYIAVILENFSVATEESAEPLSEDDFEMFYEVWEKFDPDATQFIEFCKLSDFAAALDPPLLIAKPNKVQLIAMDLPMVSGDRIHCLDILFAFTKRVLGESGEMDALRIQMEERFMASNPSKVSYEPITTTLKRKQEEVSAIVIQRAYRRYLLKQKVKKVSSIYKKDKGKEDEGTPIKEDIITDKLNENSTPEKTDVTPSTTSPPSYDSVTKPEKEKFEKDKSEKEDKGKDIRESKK

Compound	Ki (sodium channels) [µM]	Kd (sodium channels) [µM]	ΔV1/2 (shift of availability curve) ([1]; 30 μM) [mV]	ΔV1/2 (shift of availability curve) ([1]; 100 μM) [mV]	inhibition at 30 µM [1, 4] [%]	inhibition at 100 µM [1, 5] [%]	Ki [1, 6] [µM]	Ki [1, 7] [µM]	Kd [1, 8] [µM]	Ki [1, 9] [µM]	Ki [1, 10] [µM]	Kd [1, 11] [µM]	τon ([2]; 30 μM) [s]	UD (use-dependence of the inhibition) ([2]; 30 μM, 5 Hz train)	τoff [2, 18] [s]	Rev (reversibility) ([2]; 30 μM)	inhibition at 30 µM [2, 19] [%]	potency estimated from few doses [2, 20] [µM]	plasma conc. ([3]; as printed in each cell)	plasma conc. ([3]; as printed in the µg/ml cell) [µM]	also measured
CN(C)CCC=C1c2ccccc2CCc2ccccc21 [AMI, Amitriptyline]	0.52	38.1	−11.2	−18	20	59	5.13	3.78	128	2.08	1.87	72.4	10.54	1.66	16.95	0.50	56	23.5	0.064 [44] µg/ml	0.204	ΔV1/2 (shift of availability curve) ([1]; 10 µM): −11.3 mV; inhibition at 10 µM ([1]; HEK293, 10 µM, read-out: Inh (inhibited fraction) at holding potential −150 mV): 8%; Ki ([1]; arithmetic mean, 10 µM, read-out: Ki-Kapp arith): 5.17 µM; Ki ([1]; arithmetic mean, 10 µM, read-out: Ki-ΔV1/2 arith): 1.97 µM; Kd ([1]; arithmetic mean, 10 µM, read-out: Kr arith): 155 µM; Kd ([1]; geometric mean, from Inh at −150 mV, 10 µM, read-out: Kr (resting state affinity)): 134 µM; Kd [1, 12]: 125 µM; Kd [1, 13]: 69.6 µM; Ki ([1]; geometric mean, from apparent affinity, 10 µM, read-out: Ki−Kapp (inactivated state affinity)): 3.34 µM; Ki [1, 14]: 4.92 µM; Ki [1, 15]: 2 µM; Ki ([1]; geometric mean, from shift of availability curve, 10 µM, read-out: Ki−ΔV1/2 (inactivated state affinity)): 1.45 µM; Ki [1, 16]: 3.69 µM; Ki [1, 17]: 1.65 µM
CCCCN1CCCCC1C(=O)Nc1c(C)cccc1C (centres unmarked) [BPV, Bupivacaine]	20.1	291		−11.3		14				8.21	6.46	635							0.8 [44] µg/ml	2.462	Kd [1, 13]: 619 µM; Ki [1, 15]: 7.79 µM; Ki [1, 17]: 5.85 µM; τon ([2]; 100 μM): 7.95 s; UD (use-dependence of the inhibition) ([2]; 100 μM, 5 Hz train): 1.62; τoff ([2]; 100 μM, 500 s assigned where irreversible): 16.73 s; Rev (reversibility) ([2]; 100 μM): 0.75; use-dependence (UD) ([2]; 5 Hz train): high use-dependence; inhibition at 100 µM ([2]; HEK293, 100 μM, −90 mV holding potential, 5 Hz train, read-out: Inh (inhibited fraction)): 60%; potency estimated from few doses ([2]; HEK293, calculated from Inh at single concentration 100 μM, 5 Hz train): 67.7 µM
NC(=O)N1c2ccccc2C=Cc2ccccc21 [CBZ, Carbamazepine]	21.8	946																	9.3 [44] µg/ml	39.362	ΔV1/2 (shift of availability curve) ([1]; 300 μM): −11.4 mV; inhibition at 300 µM ([1]; HEK293, 300 µM, read-out: Inh (inhibited fraction) at holding potential −150 mV): 21%; Ki ([1]; arithmetic mean, 300 µM, read-out: Ki-Kapp arith): 26.9 µM; Ki ([1]; arithmetic mean, 300 µM, read-out: Ki-ΔV1/2 arith): 40.1 µM; Kd ([1]; arithmetic mean, 300 µM, read-out: Kr arith): 1180 µM; Kd ([1]; geometric mean, from Inh at −150 mV, 300 µM, read-out: Kr (resting state affinity)): 1170 µM; Ki ([1]; geometric mean, from apparent affinity, 300 µM, read-out: Ki−Kapp (inactivated state affinity)): 26.4 µM; Ki ([1]; geometric mean, from shift of availability curve, 300 µM, read-out: Ki−ΔV1/2 (inactivated state affinity)): 39.9 µM; τoff ([2]; 300 μM): 10.01 s; τon ([2]; 300 μM, 3 s assigned where too short to be resolved): 3 s; UD (use-dependence of the inhibition) ([2]; 300 μM, 5 Hz train): 0.98; Rev (reversibility) ([2]; 300 μM): 0.87; inhibition at 300 µM ([2]; HEK293, 300 μM, −90 mV holding potential, 5 Hz train, read-out: Inh (inhibited fraction)): 29%; potency estimated from few doses ([2]; HEK293, calculated from Inh at single concentration 300 μM, 5 Hz train): 718 µM; potency ([2]; in words): among the least potent SCIs
CN(C)CCCN1c2ccccc2Sc2ccc(Cl)cc21 [CPM, Chlorpromazine]	0.19	3.18	−18.4		32		1.03	0.33	85.8				14.81	1.30	9.67	0.07	41	47.3	0.1 [44] µg/ml	0.281	Kd [1, 12]: 69.6 µM; Ki [1, 14]: 0.82 µM; Ki [1, 16]: 0.29 µM
CNCCCN1c2ccccc2CCc2ccccc21 [DMI, Desipramine]	1.15	29.2			35								32.02	1.32	51.82	0.43	62	18.3	0.1 [44] µg/ml	0.330	
